# Data as given in US11286278B2, “DPEP-1 binding agents and methods of use” (Arch Biopartners, Inc., priority 2018, dated 2022).
# Ends that are not written are not given here.
# Molecular target: T1, human membrane dipeptidase (DPEP-1) (Homo sapiens, UniProt P16444)
# T1 construct: expressed in transfected cells; host or cells: Cos-1
# T1 sequence (P16444 17-385): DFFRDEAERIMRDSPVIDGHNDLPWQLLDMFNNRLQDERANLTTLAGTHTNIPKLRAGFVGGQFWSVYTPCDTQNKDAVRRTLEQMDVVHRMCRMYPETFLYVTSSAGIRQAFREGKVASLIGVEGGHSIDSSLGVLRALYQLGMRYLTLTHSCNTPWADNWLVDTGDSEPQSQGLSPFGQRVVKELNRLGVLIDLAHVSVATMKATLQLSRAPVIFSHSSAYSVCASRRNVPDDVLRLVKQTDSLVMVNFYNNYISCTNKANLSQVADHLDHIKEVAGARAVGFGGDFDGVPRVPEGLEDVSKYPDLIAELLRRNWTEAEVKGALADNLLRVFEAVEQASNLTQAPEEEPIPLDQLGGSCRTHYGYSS
# Experiment: Membrane dipeptidase enzyme activity assay (Gly-D-Phe, fluorometric)
# Format: biochemical
# Settings: lysates of transfected Cos1 cells, substrate Gly-D-Phe
# Experimental: 24 hours after transfection, DPEP-1 expressing cells weer reseeded on 24 well collagen coated (neutralized) plates and allowed to grow for 24 hours at 37° C. […] Cells were blocked with FBS/NBSA/Tween in PBS for 30 minutes on ice. […] After incubation, cells were washed with PBS and stained with DAPI for 4 minutes on ice. Cells were again washed with PBS, fixed using 4% paraformaldehyde and immunofluoresence microscopy was performed to assess binding. Proteins from human DPEP-1 transfected cells were isolated after 48 hours using octyl-glucoside/RIPA in the absence of protease inhibitors. […] Proteins from transfected cells were isolated after 48 hours using octyl-glucoside/RIPA lysis buffer and western blot analysis was performed to assess DPEP-1 expression using DPEP-1 antibody (Sigma).
# The fluorescence signal generated from the conversion of D-Phe to […] in the presence of D-aminoacidoxidase and peroxidase was measured using a fluorescence plate reader.
# Proteins from DPEP-1 transfected cells were isolated after 48 hours using octyl-glucoside/RIPA lysis buffer and western blot analysis was performed to assess DPEP-1 expression using a DPEP-1 specific antibody (Proteintech) (FIG. 24B).
substance,measurement,value
H-LSALTPSPSWLKYKAL [LSALT],inhibition of human DPEP1 enzymatic activity,do not inhibit membrane dipeptidase enzyme activity
